Results on eleven molecules are retold here after paper PMC11378702 (RSC Advances, 2024).

Read-outs that look alike come from different tables or passages of the source.

As a reminder, the IC50 is the concentration at which inhibition is half-maximal.

Assay [1] deals with EGFR^T790M (Homo sapiens, UniProt P00533, T790M). Kind of assay: biochemical. It is filed as biochemical.
Assay [2] has as its system A549. In words: cells. In kind it is cell-based. As to conditions: Homo sapiens, A549, 48 h, read-out: IC50 (μM) A549.
Assay [3] has as its target EGFR^WT (Homo sapiens, UniProt P00533). In words: biochemical.
In assay [4] the test system is H1975. In words: MTT anti-proliferative assay, H1975 cells. In kind it is cell-based. Conditions: Homo sapiens, NCI-H1975, 48 h, read-out: IC50 (μM) H1975. On the technique in general: Formazan colour is commonly taken as a measure of viable cells.
Assay [5] has as its system A431. Kind of assay: MTT anti-proliferative assay, A431 cells. It is filed as cell-based, human. Conditions: read-out: IC50 (μM) A431.

Sequence of EGFR^T790M (P00533 25-1210 T790M): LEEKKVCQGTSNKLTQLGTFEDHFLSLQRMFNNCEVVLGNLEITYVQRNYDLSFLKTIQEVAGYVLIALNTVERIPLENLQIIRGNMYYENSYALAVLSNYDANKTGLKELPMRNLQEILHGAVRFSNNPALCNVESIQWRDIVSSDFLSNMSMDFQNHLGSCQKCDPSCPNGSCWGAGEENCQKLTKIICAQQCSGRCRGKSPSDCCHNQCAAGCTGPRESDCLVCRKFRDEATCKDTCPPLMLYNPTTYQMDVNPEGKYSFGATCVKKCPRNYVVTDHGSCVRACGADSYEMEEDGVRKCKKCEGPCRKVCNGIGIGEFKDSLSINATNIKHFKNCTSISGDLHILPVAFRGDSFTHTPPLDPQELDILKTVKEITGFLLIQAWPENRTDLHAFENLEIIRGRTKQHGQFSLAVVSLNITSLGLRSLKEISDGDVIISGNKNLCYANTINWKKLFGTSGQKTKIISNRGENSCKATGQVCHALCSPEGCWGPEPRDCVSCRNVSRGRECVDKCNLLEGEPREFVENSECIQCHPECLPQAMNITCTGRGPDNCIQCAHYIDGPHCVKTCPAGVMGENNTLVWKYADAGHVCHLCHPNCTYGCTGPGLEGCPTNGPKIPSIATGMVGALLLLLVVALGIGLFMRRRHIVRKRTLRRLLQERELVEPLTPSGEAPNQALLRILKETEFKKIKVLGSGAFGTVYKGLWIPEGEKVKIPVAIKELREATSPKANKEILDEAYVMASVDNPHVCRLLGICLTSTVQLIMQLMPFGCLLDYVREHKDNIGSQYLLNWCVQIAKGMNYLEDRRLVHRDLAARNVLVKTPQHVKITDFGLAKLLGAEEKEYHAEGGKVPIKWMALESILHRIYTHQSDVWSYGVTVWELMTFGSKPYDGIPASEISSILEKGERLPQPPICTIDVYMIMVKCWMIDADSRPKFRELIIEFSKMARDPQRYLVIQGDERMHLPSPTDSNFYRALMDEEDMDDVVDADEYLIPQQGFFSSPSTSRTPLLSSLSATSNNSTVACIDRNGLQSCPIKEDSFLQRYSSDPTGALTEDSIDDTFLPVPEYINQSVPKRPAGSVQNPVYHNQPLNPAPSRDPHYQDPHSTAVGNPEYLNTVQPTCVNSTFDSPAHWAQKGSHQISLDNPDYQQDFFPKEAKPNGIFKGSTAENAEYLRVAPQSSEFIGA
Sequence of EGFR^WT (P00533 25-1210): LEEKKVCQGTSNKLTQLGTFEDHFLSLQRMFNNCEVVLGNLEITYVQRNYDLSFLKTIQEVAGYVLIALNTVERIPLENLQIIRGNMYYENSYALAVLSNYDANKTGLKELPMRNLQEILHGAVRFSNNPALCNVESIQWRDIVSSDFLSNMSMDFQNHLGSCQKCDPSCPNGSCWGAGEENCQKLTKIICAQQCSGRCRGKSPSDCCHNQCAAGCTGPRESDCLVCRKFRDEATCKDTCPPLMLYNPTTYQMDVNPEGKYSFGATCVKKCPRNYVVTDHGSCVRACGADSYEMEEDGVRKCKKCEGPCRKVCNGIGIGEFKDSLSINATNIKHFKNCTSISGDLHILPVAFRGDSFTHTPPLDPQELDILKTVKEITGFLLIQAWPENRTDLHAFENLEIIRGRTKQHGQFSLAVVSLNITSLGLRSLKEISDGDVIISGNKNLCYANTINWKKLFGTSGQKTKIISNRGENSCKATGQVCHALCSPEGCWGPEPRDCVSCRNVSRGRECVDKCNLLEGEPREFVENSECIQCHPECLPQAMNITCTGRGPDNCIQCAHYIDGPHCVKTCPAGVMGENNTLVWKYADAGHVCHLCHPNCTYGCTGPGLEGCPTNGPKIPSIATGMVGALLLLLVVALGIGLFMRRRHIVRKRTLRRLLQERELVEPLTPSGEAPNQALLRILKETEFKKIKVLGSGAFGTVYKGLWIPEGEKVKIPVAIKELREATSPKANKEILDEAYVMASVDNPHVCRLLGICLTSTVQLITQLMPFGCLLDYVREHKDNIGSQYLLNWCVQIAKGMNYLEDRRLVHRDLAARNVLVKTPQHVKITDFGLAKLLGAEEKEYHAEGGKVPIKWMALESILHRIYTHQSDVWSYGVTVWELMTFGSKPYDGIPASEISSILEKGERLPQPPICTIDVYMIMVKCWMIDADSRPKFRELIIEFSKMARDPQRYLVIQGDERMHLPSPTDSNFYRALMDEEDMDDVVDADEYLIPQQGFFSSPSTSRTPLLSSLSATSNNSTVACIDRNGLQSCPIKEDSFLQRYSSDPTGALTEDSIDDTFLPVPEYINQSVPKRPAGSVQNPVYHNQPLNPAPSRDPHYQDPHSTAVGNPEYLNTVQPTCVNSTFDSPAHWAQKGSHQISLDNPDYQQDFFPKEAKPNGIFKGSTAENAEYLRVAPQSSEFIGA

With `CCC(=O)C(=NNc1ccc(S(=O)(=O)Nc2ncccn2)cc1)C(C)=O` [Compound 5, 4-(2-(2,4-Dioxohexan-3-ylidene)hydrazineyl)-N-(pyrimidin-2-yl)benzenesulfonamide], the concentration for half-maximal inhibition (IC50) in assay [1] worked out at 0.0936 ± 0.0085 µM; in assay [2], 19.2 ± 3.09 µM; in assay [3], 0.0492 ± 0.0067 µM; in assay [4], 20.1 ± 2.21 µM.

Consider `CC(=O)C(=NNc1ccc(S(=O)(=O)Nc2ncccn2)cc1)C(C)=O` [Compound 6, 4-(2-(2,4-Dioxopentan-3-ylidene)hydrazineyl)-N-(pyrimidin-2-yl)benzenesulfonamide], for which the IC50 in assay [1] is 0.0668 ± 0.0104 µM; in assay [2] it was 16.6 ± 0.92 µM; in assay [3], 0.0526 ± 0.0093 µM; in assay [4], 15.7 ± 0.21 µM.

As for `CC(=O)C(=NNc1ccc(S(=O)(=O)Nc2ncccn2)cc1)C(=O)c1ccccc1` [Compound 8, 4-[2-(1-Benzoyl-2-oxopropylidene)hydrazino]-N-pyrimidin-2-ylbenzenesulfonamide], the IC50 in assay [1] came to 0.0096 ± 0.0032 µM; in assay [5] (MTT, two-day incubation, mean ± SD, n = 3) it was 4.12 ± 0.54 µM; in assay [2], 4.78 ± 0.12 µM; in assay [3], 0.0232 ± 0.0001 µM; in assay [4], 2.31 ± 0.23 µM. In assay [1] (relative to gefitinib), the “fold more potent than gefitinib (EGFR^T790M IC50)” value stood at 38 fold.

On to `CCOC(=O)/C(C#N)=N\Nc1ccc(S(=O)(=O)Nc2ncccn2)cc1` [Compound 9, Ethyl (Z)-2-cyano-2-(2-(4-(N-(pyrimidin-2-yl)sulfamoyl)phenyl)hydrazineylidene)acetate], for which the IC50 in assay [1] stood at 0.0171 ± 0.0001 µM; in assay [2], 15 ± 1.27 µM; in assay [3] it was 0.0435 ± 0.0002 µM; in assay [4] it was 13.1 ± 0.67 µM.

`N#CC(=NNc1ccc(S(=O)(=O)Nc2ncccn2)cc1)C(N)=S` [Compound 10, 2-Cyano-(2-(4-(N-(pyrimidin-2-yl)sulfamoyl)phenyl)hydrazono)ethanethioamide]: the IC50 came out at 0.0608 ± 0.0062 µM in assay [1], 19.7 ± 0.34 µM in assay [2], 0.0315 ± 0.0058 µM in assay [3] and 15.8 ± 2.48 µM in assay [4].

With `N#CC(=NNc1ccc(S(=O)(=O)Nc2ncccn2)cc1)C(N)=C(C#N)C#N` [Compound 11, 2-Amino-3,3-dicyano-N-(4-(N-(pyrimidin-2-yl)sulfamoyl)phenyl)acrylohydrazonoyl cyanide], the IC50 is 0.133 ± 0.0162 µM in assay [1]; 15.1 ± 0.58 µM in assay [5] (Homo sapiens, A-431, 48 h); 13.6 ± 1.32 µM in assay [2]; 0.0477 ± 0.0114 µM in assay [3]; 14.1 ± 1.23 µM in assay [4].

For `CCOC(=O)C(=NNc1ccc(S(=O)(=O)Nc2ncccn2)cc1)C(=O)OCC` [Compound 12, Diethyl 2-(2-(4-(N-(pyrimidin-2-yl)sulfamoyl)phenyl)hydrazineylidene)malonate], the IC50 in assay [1] was 0.0354 ± 0.0086 µM; in assay [2] it was 5.15 ± 0.3 µM; in assay [3] it was 0.0145 ± 0.0075 µM; in assay [4], 6.12 ± 0.24 µM.

Consider `CSC1=NC(=N)C(=NNc2ccc(S(=O)(=O)Nc3ncccn3)cc2)C(N)=C1C#N` [Compound 13, 4-{-2-[4-Amino-5-cyano-2-imino-6-(methylthio)pyridin-3(2H)-ylidene]hydrazino}-N-pyrimidin-2-ylbenzenesulfonamide], for which the IC50 was 0.215 ± 0.0152 µM in assay [1], 15.5 ± 1.34 µM in assay [2], 0.0417 ± 0.0082 µM in assay [3] and 17.1 ± 1.62 µM in assay [4].

Turning to `CSc1nc(NC(=O)C(=NNc2ccc(S(=O)(=O)Nc3ncccn3)cc2)C(C)=O)cc(N)c1C#N` [Compound 14, N-(4-Amino-5-cyano-6-(methylthio)pyridin-2-yl)-3-oxo-2-{[4-(pyrimidin-2-ylsulfamoyl)phenyl]hydrazono}butanamide], the IC50 in assay [1] came out at 0.0243 ± 0.0034 µM; in assay [2], 7.56 ± 0.27 µM; in assay [3], 0.0153 ± 0.0031 µM; in assay [4], 4.59 ± 0.43 µM.

As for `C#Cc1cccc(Nc2ncnc3cc(OCCOC)c(OCCOC)cc23)c1` [Erlotinib, reference compound], the half-inhibitory concentration (IC50) in assay [2] is 17.5 ± 2.34 µM; in assay [4] it was 12.9 ± 1.23 µM.

Turning to `C=CC(=O)Nc1cc(Nc2nccc(-c3cn(C)c4ccccc34)n2)c(OC)cc1N(C)CCN(C)C` [Osimertinib, reference compound], in assay [4], the IC50 is 0.93 ± 0.09 µM.
